Assay results as given in patent US20070128217A1 (priority 2003, published 2007).

Legend:
[1] = tested on: antibodies in sera from SARS patients (sera 1a, 1b, 2, 6, 37, 62, London, SARS-yellow, SARS-green); type: binding, human; design: Binding of serum 6 to linear peptides of protein X1 of SARS-CoV Urbani / Binding of serum 37 to linear peptides of protein X1 of SARS-CoV Urbani / Binding of serum 6 to looped/cyclic peptide (PEPSCAN-ELISA) / Binding of serum 37 to looped/cyclic peptide (PEPSCAN-ELISA) / Binding of serum 37 to looped/cyclic peptides of protein X1 of SARS-CoV Urbani / Binding of serum 6 to linear peptides of protein X2 / Binding of serum 37 to linear peptides of protein X2 / Binding of serum 37 to looped/cyclic peptides of protein X2 of SARS-CoV Urbani / Binding of serum 6 to linear peptides of protein M of SARS-CoV Urbani / Binding of serum 37 to linear peptides of protein M of SARS-CoV Urbani / Binding of serum 6 to looped/cyclic peptides of protein M of SARS-CoV Urbani / Binding of serum 37 to looped/cyclic peptides of protein M of SARS-CoV Urbani / Binding of serum 6 to linear peptides of protein X3 of SARS-CoV Urbani / Binding of serum 37 to linear peptides of protein X3 of SARS-CoV Urbani / Binding of serum 37 to looped/cyclic peptides of protein X3 of SARS-CoV Urbani / Binding of serum 6 to linear peptides of protein X4 of SARS-CoV Urbani / Binding of serum 37 to linear peptides of protein X4 of SARS-CoV Urbani / Binding of serum 37 to looped/cyclic peptides of protein X4 of SARS-CoV Urbani / Binding of serum 6 to linear peptides of protein X5 of SARS-CoV Urbani / Binding of serum 37 to linear peptides of protein X5 of SARS-CoV Urbani / Binding of serum 37 to looped/cyclic peptides of protein X5 of SARS-CoV Urbani / Binding of serum 6 to linear peptides of protein N of SARS-CoV Urbani / Binding of serum 37 to linear peptides of protein N of SARS-CoV Urbani / Binding of serum 6 to linear peptide (PEPSCAN-ELISA) / Binding of serum 1a to looped/cyclic peptides of protein N of SARS-CoV Urbani / Binding of serum 1b to looped/cyclic peptides of protein N of SARS-CoV Urbani / Binding of serum 2 to looped/cyclic peptides of protein N of SARS-CoV Urbani / Binding of serum 6 to looped/cyclic peptides of protein N of SARS-CoV Urbani / Binding of serum 37 to looped/cyclic peptides of protein N of SARS-CoV Urbani / Binding of serum 62 to looped/cyclic peptides of protein N of SARS-CoV Urbani / Binding of serum London to looped/cyclic peptides of protein N of SARS-CoV Urbani / Binding of serum SARS-green to looped/cyclic peptides of protein N of SARS-CoV Urbani: unit not given here
[2] = tested on: control sera (pooled serum of ten healthy LUMC hospital workers; commercial negative donor pooled serum from the Dutch bloodbank); type: binding, human; design: Binding of Control serum LUMC to linear peptides / Binding of Control serum Blood-bank to linear peptides / Binding of Control serum LUMC to looped peptides / Binding of Control Serum Blood-Bank to Looped peptides / Binding of Control serum LUMC to linear peptides of the protein M of SARS-CoV Urbani / Binding of Control serum Blood-bank to linear peptides of the protein M of SARS-CoV Urbani / Binding of Control serum LUMC to looped peptides of the protein M of SARS-CoV Urbani / Binding of Control Serum Blood-Bank to Looped peptides of the protein M of SARS-CoV Urbani: unit not given here
[3] = tested on: rabbit serum obtained by immunizing a rabbit with the SARS-CoV strain Frankfurt 1; type: binding; design: Binding of a rabbit serum to linear peptides / Binding of a rabbit serum to looped peptides / Rabbit serum linear peptides / Rabbit serum looped peptides / Binding of a rabbit serum to linear peptides of protein N of SARS-CoV Urbani (Rabbit serum linear peptides) / Binding of a rabbit serum to looped/cyclic peptides of protein N of SARS-CoV Urbani (Rabbit serum looped peptides): unit not given here

DTGIENATFFIFNKL
0.7: Binding of serum 1a to linear peptides of protein X1 of SARS-CoV Urbani [1] | Binding of serum 37 to linear peptides of protein X1 of SARS-CoV Urbani [1] | Binding of serum 37 to looped/cyclic peptides of protein X1 of SARS-CoV Urbani [1] | Binding of Control Serum Blood-Bank to Looped peptides [2]
0.1: Binding of a rabbit serum to linear peptides [3]
0.3: Binding of serum SARS-green to linear peptides of protein X1 of SARS-CoV Urbani [1]
0.4: Binding of serum 6 to linear peptides of protein X1 of SARS-CoV Urbani [1] | Binding of serum London to linear peptides of protein X1 of SARS-CoV Urbani [1] | Binding of serum SARS-green to looped/cyclic peptides of protein X1 of SARS-CoV Urbani [1] | Binding of serum SARS-yellow to linear peptides of protein X1 of SARS-CoV Urbani [1]
0.2: Binding of serum 6 to looped/cyclic peptides of protein X1 of SARS-CoV Urbani [1] | Binding of serum London to looped/cyclic peptides of protein X1 of SARS-CoV Urbani [1]
0.6: Binding of serum 1a to looped/cyclic peptides of protein X1 of SARS-CoV Urbani [1] | Binding of serum 2 to looped/cyclic peptides of protein X1 of SARS-CoV Urbani [1] | Binding of serum 62 to linear peptides of protein X1 of SARS-CoV Urbani [1] | Binding of serum 62 to looped/cyclic peptides of protein X1 of SARS-CoV Urbani [1] | Binding of serum SARS-yellow to looped/cyclic peptides of protein X1 of SARS-CoV Urbani [1] | Binding of Control serum Blood-bank to linear peptides [2] | Binding of a rabbit serum to looped peptides [3]
0.5: Binding of serum 1b to linear peptides of protein X1 of SARS-CoV Urbani [1] | Binding of serum 1b to looped/cyclic peptides of protein X1 of SARS-CoV Urbani [1] | Binding of serum 2 to linear peptides of protein X1 of SARS-CoV Urbani [1] | Binding of Control serum LUMC to linear peptides [2]
0.9: Binding of Control serum LUMC to looped peptides [2]

DVIISSIVRQLFKPL
0.4: Binding of serum 1b to linear peptides of protein X3 of SARS-CoV Urbani [1] | Binding of serum 62 to looped/cyclic peptides of protein X3 of SARS-CoV Urbani [1] | Binding of serum SARS-green to looped/cyclic peptides of protein X3 of SARS-CoV Urbani [1] | Binding of Control serum LUMC to linear peptides of the protein X3 of SARS-CoV Urbani [2]
0.5: Binding of serum 2 to linear peptides of protein X3 of SARS-CoV Urbani [1] | Binding of serum 2 to looped/cyclic peptides of protein X3 of SARS-CoV Urbani [1] | Binding of serum 37 to looped/cyclic peptides of protein X3 of SARS-CoV Urbani [1] | Binding of serum SARS-yellow to looped/cyclic peptides of protein X3 of SARS-CoV Urbani [1] | Binding of Control Serum Blood-Bank to Looped peptides of the protein X3 of SARS-CoV Urbani [2] | Binding of Control serum LUMC to looped peptides of the protein X3 of SARS-CoV Urbani [2] | Rabbit serum linear peptides [3]
0.6: Binding of serum 1a to looped/cyclic peptides of protein X3 of SARS-CoV Urbani [1] | Binding of serum 6 to looped/cyclic peptides of protein X3 of SARS-CoV Urbani [1] | Binding of serum 37 to linear peptides of protein X3 of SARS-CoV Urbani [1] | Binding of serum 62 to linear peptides of protein X3 of SARS-CoV Urbani [1] | Binding of serum London to linear peptides of protein X3 of SARS-CoV Urbani [1] | Binding of serum London to looped/cyclic peptides of protein X3 of SARS-CoV Urbani [1] | Binding of Control serum Blood-bank to linear peptides of the protein X3 of SARS-CoV Urbani [2]
0.2: Binding of serum 1b to looped/cyclic peptides of protein X3 of SARS-CoV Urbani [1] | Binding of serum SARS-yellow to linear peptides of protein X3 of SARS-CoV Urbani [1] | Rabbit serum looped peptides [3]
0.7: Binding of serum 1a to linear peptides of protein X3 of SARS-CoV Urbani [1]
0.3: Binding of serum 6 to linear peptides of protein X3 of SARS-CoV Urbani [1] | Binding of serum SARS-green to linear peptides of protein X3 of SARS-CoV Urbani [1]

ELKQLLEQWNLVIGF
0.9: Binding of serum SARS-yellow to looped/cyclic peptides of protein M of SARS-CoV Urbani [1]
0.8: Binding of serum 1a to linear peptides of protein M of SARS-CoV Urbani [1] | Binding of serum 1b to linear peptides of protein M of SARS-CoV Urbani [1] | Binding of serum 6 to looped/cyclic peptides of protein M of SARS-CoV Urbani [1] | Binding of Control serum Blood-bank to linear peptides of the protein M of SARS-CoV Urbani [2]
0.5: Binding of serum 2 to linear peptides of protein M of SARS-CoV Urbani [1] | Binding of serum 2 to looped/cyclic peptides of protein M of SARS-CoV Urbani [1] | Binding of serum 62 to linear peptides of protein M of SARS-CoV Urbani [1] | Binding of serum 62 to looped/cyclic peptides of protein M of SARS-CoV Urbani [1] | Binding of serum SARS-green to linear peptides of protein M of SARS-CoV Urbani [1]
0.3: Binding of serum London to looped/cyclic peptides of protein M of SARS-CoV Urbani [1] | Binding of serum SARS-yellow to linear peptides of protein M of SARS-CoV Urbani [1]
0.2: Rabbit serum looped peptides [3]
0.0: Rabbit serum linear peptides [3]
0.6: Binding of serum 1a to looped/cyclic peptides of protein M of SARS-CoV Urbani [1] | Binding of serum 1b to looped/cyclic peptides of protein M of SARS-CoV Urbani [1] | Binding of serum 6 to linear peptides of protein M of SARS-CoV Urbani [1] | Binding of serum 37 to linear peptides of protein M of SARS-CoV Urbani [1] | Binding of serum London to linear peptides of protein M of SARS-CoV Urbani [1] | Binding of Control Serum Blood-Bank to Looped peptides of the protein M of SARS-CoV Urbani [2]
0.7: Binding of serum 37 to looped/cyclic peptides of protein M of SARS-CoV Urbani [1] | Binding of serum SARS-green to looped/cyclic peptides of protein M of SARS-CoV Urbani [1] | Binding of Control serum LUMC to linear peptides of the protein M of SARS-CoV Urbani [2] | Binding of Control serum LUMC to looped peptides of the protein M of SARS-CoV Urbani [2]

ELYSPLFLIVAALVF
0.6: Binding of serum 1a to looped/cyclic peptides of protein X4 of SARS-CoV Urbani [1] | Binding of serum 2 to looped/cyclic peptides of protein X4 of SARS-CoV Urbani [1] | Binding of serum 37 to linear peptides of protein X4 of SARS-CoV Urbani [1] | Binding of serum 37 to looped/cyclic peptides of protein X4 of SARS-CoV Urbani [1] | Binding of serum 62 to linear peptides of protein X4 of SARS-CoV Urbani [1] | Binding of serum 62 to looped/cyclic peptides of protein X4 of SARS-CoV Urbani [1] | Binding of serum SARS-yellow to looped/cyclic peptides of protein X4 of SARS-CoV Urbani [1]
0.3: Binding of Control serum LUMC to linear peptides [2]
0.7: Binding of serum 1a to linear peptides of protein X4 of SARS-CoV Urbani [1] | Binding of Control Serum Blood-Bank to Looped peptides [2] | Binding of Control serum LUMC to looped peptides [2]
0.4: Binding of serum 1b to linear peptides of protein X4 of SARS-CoV Urbani [1] | Binding of serum 1b to looped/cyclic peptides of protein X4 of SARS-CoV Urbani [1] | Binding of serum 2 to linear peptides of protein X4 of SARS-CoV Urbani [1] | Binding of serum 6 to linear peptides of protein X4 of SARS-CoV Urbani [1] | Binding of serum 6 to looped/cyclic peptides of protein X4 of SARS-CoV Urbani [1] | Rabbit serum linear peptides [3]
0.2: Binding of serum London to looped/cyclic peptides of protein X4 of SARS-CoV Urbani [1] | Binding of serum SARS-yellow to linear peptides of protein X4 of SARS-CoV Urbani [1]
0.5: Binding of serum London to linear peptides of protein X4 of SARS-CoV Urbani [1] | Binding of serum SARS-green to linear peptides of protein X4 of SARS-CoV Urbani [1] | Binding of serum SARS-green to looped/cyclic peptides of protein X4 of SARS-CoV Urbani [1] | Binding of Control serum Blood-bank to linear peptides [2] | Rabbit serum looped peptides [3]

EPCPSGTYEGNSPFH
0.5: Binding of serum 1b to linear peptides of protein X4 of SARS-CoV Urbani [1] | Binding of serum 6 to linear peptides of protein X4 of SARS-CoV Urbani [1] | Binding of serum SARS-green to looped/cyclic peptides of protein X4 of SARS-CoV Urbani [1] | Binding of serum SARS-yellow to looped/cyclic peptides of protein X4 of SARS-CoV Urbani [1] | Binding of Control serum LUMC to linear peptides [2]
0.7: Binding of serum 1a to linear peptides of protein X4 of SARS-CoV Urbani [1] | Binding of serum 2 to looped/cyclic peptides of protein X4 of SARS-CoV Urbani [1] | Binding of serum 37 to looped/cyclic peptides of protein X4 of SARS-CoV Urbani [1] | Binding of serum 62 to linear peptides of protein X4 of SARS-CoV Urbani [1] | Binding of serum London to linear peptides of protein X4 of SARS-CoV Urbani [1]
0.9: Binding of serum SARS-yellow to linear peptides of protein X4 of SARS-CoV Urbani [1]
0.4: Binding of serum 2 to linear peptides of protein X4 of SARS-CoV Urbani [1] | Binding of serum London to looped/cyclic peptides of protein X4 of SARS-CoV Urbani [1] | Rabbit serum looped peptides [3]
0.8: Binding of serum 1a to looped/cyclic peptides of protein X4 of SARS-CoV Urbani [1] | Binding of Control serum LUMC to looped peptides [2]
0.6: Binding of serum 1b to looped/cyclic peptides of protein X4 of SARS-CoV Urbani [1] | Binding of serum 6 to looped/cyclic peptides of protein X4 of SARS-CoV Urbani [1] | Binding of serum 37 to linear peptides of protein X4 of SARS-CoV Urbani [1] | Binding of serum 62 to looped/cyclic peptides of protein X4 of SARS-CoV Urbani [1] | Binding of serum SARS-green to linear peptides of protein X4 of SARS-CoV Urbani [1] | Binding of Control Serum Blood-Bank to Looped peptides [2] | Binding of Control serum Blood-bank to linear peptides [2] | Rabbit serum linear peptides [3]
